Measured values published in patent publication US4792607A, “5-fluoro-3,4-dihydro-2,4-dioxo-N-(3-indolyl)-1(2H)-pyrimidinecarboxamides” (Chisso Corporation, priority 1986, dated 1988).

Assays:
[1] = system: Leukosis cells of P-388 mouse; test: Antitumor Effect Test (P-388 leukemia grafted into the abdomen of mice, ratio of survival days T/C); format: in vivo; settings: dosed into the abdomen successively for 5 days, P-388 in CDF1 or BDF1 mouse
Excerpt: [Antitumor Effect Test] Leukosis cells of P-388 mouse of 1×10^6 /mouse were grafted into the abdomen of CDF1 or BDF1 mouse, and the fixed quantity of the compound of this invention was successively dosed into the abdomen for 5 days. Each 6 mice per dose level as test groups and 30~33 mice as control groups were used. [formula]

[2] = Acute Toxicity Test (LD50); settings: in vivo
[3] = Mus musculus, P388, ip, 120 h, 30 mg/kg

Row | Compound | response vs control in vivo at 30 mg/kg [1, 3] | response vs control in vivo at 60 mg/kg ([1]; Mus musculus, P388, ip, 120 h) | LD50 [2] | response vs control in vivo at 15 mg/kg ([1]; Mus musculus, P388, ip, 120 h) | response vs control in vivo at 120 mg/kg ([1]; Mus musculus, P388, ip, 120 h) | other results
1 | O=C(Nc1cccs1)n1cc(F)c(=O)[nH]c1=O [Experiment 1] | 129% | 138% | > 240 mg/kg | – | – | T/C (ratio of survival days) ([1]; 30 mg/kg): 129%
2 | O=C(Nc1ccc[n+]([O-])c1)n1cc(F)c(=O)[nH]c1=O [Experiment 2] | 149% | 166% | 240 mg/kg | 127% | – | –
3 | O=C(Nc1c[nH]c2ccccc12)n1cc(F)c(=O)[nH]c1=O [Experiment 3] | 123% | 135% | > 400 mg/kg | – | 136% | response vs control in vivo at 400 mg/kg ([1]; Mus musculus, P388, ip, 120 h): 153%
4 | O=C(NCc1c[nH]c2ccccc12)n1cc(F)c(=O)[nH]c1=O [Experiment 4] | 117% | 115% | > 400 mg/kg | – | 118% | response vs control in vivo at 400 mg/kg ([1]; Mus musculus, P388, ip, 120 h): 128%
5 | O=C(NCNC(=O)n1cc(F)c(=O)[nH]c1=O)c1ccccc1 [Experiment 13] | 117% | 132% | 240 mg/kg | – | 147% | –
6 | O=C(NCC[n+]1ccccc1)n1cc(F)c(=O)[nH]c1=O [Experiment 14, 5-Fluoro-3,4-dihydro-2,4-dioxo-N-[2-(1-pyridino)ethyl]-1(2H-pyrimidinecarboxamide chloride] | 171% | 215% | 120 mg/kg | 169% | – | –
7 | O=C(NCCCCC[n+]1ccccc1)n1cc(F)c(=O)[nH]c1=O [Experiment 16, 5-Fluoro-3,4-dihydro-2,4-dioxo-N-[5-(1-pyridinio)pentyl]-1(2H-pyrimidinecarboxamide bromide] | 120% | – | 60 mg/kg | 120% | – | response vs control in vivo at 7.5 mg/kg ([1]; Mus musculus, P388, ip, 120 h): 112%
8 | O=C(NCCC[n+]1ccccc1)n1cc(F)c(=O)[nH]c1=O [Experiment 17, 5-Fluoro-3,4-dihydro-2,4-dioxo-N-[3-(1-pyridinio)propyl]-1(2H-pyrimidinecarboxamide chloride] | 130% | 138% | 240 mg/kg | – | – | –
9 | O=C(NCCCCCCNC(=O)n1cc(F)c(=O)[nH]c1=O)Nc1cccnc1 [Experiment 18] | – | – | > 30 mg/kg | 139% | – | response vs control in vivo at 0.47 mg/kg ([1]; Mus musculus, P388, ip, 120 h, 0.47 mg/kg): 110%; response vs control in vivo at 0.94 mg/kg ([1]; Mus musculus, P388, ip, 120 h, 0.94 mg/kg): 115%; response vs control in vivo at 1.87 mg/kg ([1]; Mus musculus, P388, ip, 120 h, 1.87 mg/kg): 124%; response vs control in vivo at 3.75 mg/kg ([1]; Mus musculus, P388, ip, 120 h, 3.75 mg/kg): 131%; response vs control in vivo at 7.5 mg/kg ([1]; Mus musculus, P388, ip, 120 h): 138%
10 | O=C(NCCCCCCNC(=O)n1cc(F)c(=O)[nH]c1=O)Nc1ccccn1 [Experiment 19] | – | 154% | > 240 mg/kg | – | 164% | –
11 | NS(=O)(=O)c1ccc(NC(=O)NCCCCCCNC(=O)n2cc(F)c(=O)[nH]c2=O)cc1 [Experiment 20] | 95% | 110% | > 240 mg/kg | – | 111% | response vs control in vivo at 240 mg/kg ([1]; Mus musculus, P388, ip, 120 h): 112%
12 | CN(C)CCCNC(=O)NCCCCCCNC(=O)n1cc(F)c(=O)[nH]c1=O [Experiment 21] | 142% | 120% | 120 mg/kg | 120% | – | –
13 | O=C(NCCCCCCNC(=O)n1cc(F)c(=O)[nH]c1=O)NNC(=O)c1cccnc1 [Experiment 22] | 113% | 113% | > 400 mg/kg | – | 128% | response vs control in vivo at 400 mg/kg ([1]; Mus musculus, P388, ip, 120 h): 127%
14 | O=C(NCCCCCCNC(=O)n1cc(F)c(=O)[nH]c1=O)NNC(=O)c1ccncc1 [Experiment 23] | 109% | 119% | > 240 mg/kg | – | 124% | response vs control in vivo at 240 mg/kg ([1]; Mus musculus, P388, ip, 120 h): 138%
